Assay results published in patent US11607443B2, “Therapeutic peptides” (UNIVERSITE TOULOUSE III-PAUL SABATIER, priority 2016, dated 2023).

What was measured:
[1] = tested on: miR16-1; experiment: Accumulation of miR16-1 in mesenchymal stem cells by RT-qPCR; assay type: cell-based, human; conditions: 10 μM for 3 h, MSCs from three patients, normalized to PPIA; FIG. 16
Method: The mesenchymal stem cells were treated with 10 μM of miPEP//15a-16-1-TAT, treated with 10 μM of control peptide (ScmiPEP//21-1) or untreated (NT) for 3 hours. The amount of miR16-1 precursor in cells has been measured by quantitative RT-PCR. The measurement of the amount of miR16-1 precursor was normalized with respect to the PPIA household gene. Analyzes and statistics were performed with the Mann-Withney test (p-value: * p<0.05; ** p<0.01 and *** p<0.001).
The effect of miPEP 15a-16-1 on miR16-1 accumulation was analyzed in mesenchymal stem cells (MSCs). The experiments were carried out with a fragment of 10 amino acids respectively corresponding to the N-terminal portion of the miPEP 15a-16-1 (=fragment miPEP//15 a-16-1).
MSCs from three different patients were treated with 10 μM of miPEP//15a-16-1 fused to TAT peptide (miPEP//15a-16-1-TAT) for 3 h, then the amount of miR16-1 was measured by RT-qPCR.
Peptides were synthesized by Smartbioscience and dissolved at 2 mM in water.
The MSCs were seeded in wells of 12-well plates at 72,900 cells per well under 1 mL of PROLIF medium. The cells were then incubated for 72 h at 37° C. in a humid atmosphere with 5% CO2. […]
The amount of miRNAs precursors in cells treated or not treated with miPEP was evaluated by quantitative RT-PCR with the SsoFast EvagGreen kit. […] PPIA was used as a reference gene to normalize quantitative RT-PCR. […]

[2] = tested on: Nude mice; experiment: In vivo bone formation by subcutaneous implantation of MSCs + HA/β-TCP biomaterial in Nude mice
Method: For D. and F. conditions, mice also received regular injections (once a week) of either miPEP//125a-1 (D) or scramble miPEP (F) during the study. After 4 weeks, the mice are euthanized and the grafts were then isolated, fixed, included in methacrylate, cut and treated for histology. The cuts were scanned (NDPview) and bone formation (dark grey) is evaluated (A to F) and is also quantified (G) using the Fiji image analysis software and the total area of new bone is reported to the total area of the cut
For G, the y-axis indicates the percentage of bone formation and the statistical analyzes were performed with the paired t-test (p-value: * p<0.05; ** p<0.01 and *** p<0.001).
All experiments on animals were done in accordance with directive 2010/63/EU and after validation of protocols by the Animal Ethics Committee (Toulouse, N: 86/809 EEC). A total of 6-8 mice was used per group. The cells cultured osteo-induced or not according to the methods described elsewhere (see Example 1), were then suspended for 1 to 2 h in the culture medium also containing granules of biomaterials in the ratio of 2×10^6 cells/50 mg of biomaterial. These biomaterials were biphasic inorganic calcium phosphate (BCP), composed of hydroxyapatite (HA) and beta-tricalcium phosphate (β-TCP) in a ratio of 20/80, ranging in size from 0.5 to 1 mm (sold by Biomatlante, Vigneux de Bretagne, France). The porosity of these biomaterials (% vol) was 75±5% of pores of which 70% (0 to 10 μm), 20% (10 to 100 μm) and 10% (100 to 300 μm). They were sterilized by autoclaving.
The biomaterial alone has been implanted as a negative control. Female Nude mice (RjOrl: NMRI-Foxnnul/Foxnlnu) (Laboratoires Janvier, Saint-Berthevin, France) are generally anesthetized by inhalationn of isoflurane. Two implants (cells+biomaterials) are subcutaneously placed in the back of the mice on each side of the spine. After 4 weeks, the treated animals are sacrificed. The implants are then removed and fixed in a buffered 4% formalin solution. Some groups of mice will also receive regular injections (once a week) during the study either of the miPEP//125a-1 (SEQ ID NO: 11 752) or the control miPEP (scramble ScmiPEP//125a, SEQ ID NO: 11 758).
These implants were then decalcified in a solution of 4.13% EDTA/0.2% PFA in PBS for 96 hours at 50° C. using an automatic microwave for demineralization (KOS Histostation, Milestone Med. Corp. USA). The samples were dehydrated in ethanol and then butanol baths in an automatic dehydration apparatus (MicromMicrotech, Lyon, France). The samples were then immersed in paraphine (Histowax, Histolab, Gottenburg, Sweden). Fine sections ([…]) were made using a microtome (Leica RM2255, Leica Biosystems, Nanterre, France). The sections were stained by the Masson trichrome technique and the collagen in light green.
The photos were obtained by a scan of each cut (NanoZoomer, Hamamatsu, Photonics, Hamamatsu City, Shizuoka, Japan) and observed virtually (NDP view, Hamamatsu). The histomorphometry of the images was done using the ImageJ software and the neoformed bone percentage was calculated by explant area. 3 to 4 sections per explant were analyzed and quantified.

[3] = tested on: mesenchymal stem cells; experiment: Expression of osteoblast marker genes (iBSP, PTHR1, STMN2, OSTERIX) in mesenchymal stem cells by quantitative RT-PCR; assay type: cell-based, human; conditions: for osteoblast differentiation of mesenchymal stem cells: conclusion from increased expression of osteoblast marker genes
Method: The respective effects of miPEP 125a-1 and miPEP 145-2 on differentiation of mesenchymal stem cells were analyzed by measuring the expression of the iBSP, PTHR1, STMN2 and OSTERIX genes that correspond to markers of osteogenesis and of osteoblast differentiation (Chiellini et al., Biochem Biophys Res Commun, 374(1):64-8, 2008; Cordonnier et al., Tissue Eng, 17(3): 249-259, 2011).
The experiments were carried out with two fragments of 10 amino acids respectively corresponding to the N-terminal part of the miPEP 125a-1 (=miPEP//125a-1 fragment) and to the N-terminal part of the miPEP 145-2 (=fragment miPEP//145-2).
Mesenschymal stem cells from 4 different donors were cultured for 24 hours in PROLIF medium (αMEM+10% FCS) with or without miPEP//then for 3 days in DIF+BMP4 medium (αMEM+2% FCS+b-Glycerophosphate+Ascorbic acid+BMP4), DIF ΔBMP4 medium (αMEM+2% FCS+b-Glycerophosphate+Ascorbic acid) or PROLIF medium (αMEM+10% FCS), with or without miPEP//.
The expression of the iBSP, PTHR1, STMN2 and OSTERIX genes was then measured in mesenchymal stem cells cultured in the presence or absence of a miPEP*.
a. Composition of Culture Media • Proliferation medium (PROLIF): αMEM+10% FBS+1% P/S • Differentiation medium+BMP4 (DIF+BMP4): αMEM+2% FBS+1% P/S+βglycerophosphate (10 mM)+Ascorbic acid (50 μM)+BMP4 (50 ng/mL) • Differentiation medium without BMP4 (DIF ΔBMP4): αMEM+2% FBS+1% P/S+βglycerophosphate (10 mM)+Ascorbic acid (50 μM)
The miPEP//145-2 was synthesized by Smartbioscience and dissolved at 2 mM in water. The miPEP//125a-1 was synthesized by Smartbioscience and dissolved in water+0.1% ammonium.
The mesenchymal stem cells were seeded in 12-well plates at 70,000 cells/well in 1 mL of PROLIF medium. The cells were then incubated for 72 h at 37° C. in a humid atmosphere with 5% CO2.
After 72 hours of incubation, the cells were pre-treated with 100 μM of miPEP or “scramble” peptide diluted in PROLIF medium, and then incubated at 37° C. for 24 hours. In parallel, cells treated with PROLIF±water or water+0.1% ammonium medium were used as a negative control.
For 3 days, the cells were treated every 24 h with 100 μM of diluted miPEP either in DIF+BMP4 medium, or in DIF ΔBMP4 medium, or in PROLIF medium. Cells untreated or treated with water or water+0.1% ammonium were used as controls. The cells are incubated at 37° C.
After 3 days of treatment, the culture supernatants were removed, the cell mats were washed once with PBS, and then the plates were frozen at −80° C. until the total RNAs were extracted.
Total RNAs were extracted according to the supplier's recommendations with the miRNeasy microkit kit (Qiagen).
The RNAs were reverse transcribed with the High Capacity cDNA reverse transcription kit (Applied Biosystem). 600 ng of RNA were added to 2 μL of RT buffer (10×), 2 μL of Random primer (10×), 0.8 μL of dNTPs (25×), 0.5 μL of RNAse OUT (40 U/μL) and 1 μL of multiscribe reverse transcriptase (50 U/μL) in a total volume of 20 μL. The reverse transcription reaction was carried out at 25° C. for 10 min and then 42° C. for 2 h. The activity of the enzyme was stopped by incubating the mixture at 85° C. for 5 min.
The expression of osteoblastic transcription factors iBSP, PTHR1, STMN2 and OSTERIX was evaluated by quantitative RT-PCR with the SsoFast EvagGreen kit. For the RT-PCR reaction, 3 μL of […] diluted 1/8 were added to 1× of SsoFast EvaGreen, 10 μM of each primer and RNase free water in a final volume of 10 μL. The reaction was subjected to the following temperatures: 3 min pre-amplification at 95° C., 40 cycles of 10 sec at 95° C. and […] in a thermal cycler (CFX96 Real-time PCR detection system, Biorad). PPIA was used as a reference gene to normalize quantitative RT-PCR.
For all PCR reactions, two replicates were used for each biological sample.

[4] = DIF ΔBMP4 medium, 100 μM miPEP, 4 days, FIGS. 7 and 9
[5] = DIF ΔBMP4 medium, 100 μM miPEP, 4 days, FIGS. 8 and 10
[6] = DIF+BMP4 medium, 100 μM miPEP, 4 days, FIGS. 4 and 6

Substance | amount of miR 16-1 [1] | bone formation, quantified neoformed bone ([2]; MSCs only pre-treated in vitro (C) versus untreated MSCs (B), p=0.0241, FIG. 17G) | bone formation, quantified neoformed bone ([2]; MSCs pre-treated in culture (C) versus MSCs pre-treated with scramble miPEP (E), p=0.0499, FIG. 17G) | bone formation, quantified neoformed bone ([2]; MSCs pre-treated in vitro and then in vivo (D) versus untreated MSCs (B), p=0.0203, FIG. 17G) | bone formation, qualitative (histology images) ([2]; MSCs pre-treated with miPEP (FIG. 17C-D) versus scramble miPEP (FIG. 17E-F), 4 weeks) | ability of human MSCs to form bone in vivo ([2]; MSCs previously treated in vitro) | effect of in vivo injection of the miPEP on the induction of bone formation ([2]; pre-treated MSCs plus weekly injection (D) versus MSCs only pre-treated (C), FIG. 17G) | expression of the STMN2 gene [3, 4] | expression of the OSTERIX gene [3, 5] | expression of the iBSP gene ([3]; DIF+BMP4 medium, 100 μM miPEP, 4 days, FIG. 2) | expression of the PTHR1 gene ([3]; DIF+BMP4 medium, 100 μM miPEP, 4 days, FIG. 3) | expression of the OSTERIX gene ([3]; DIF+BMP4 medium, 100 μM miPEP, 4 days, FIG. 5) | expression of the STMN2 gene [3, 6] | osteoblast differentiation of mesenchymal stem cells [3] | expression of the STMN2 gene ([3]; PROLIF medium, 100 μM miPEP, 4 days, FIG. 11)
MFKHRFFYMH-YGRKKRRQRRR [miPEP//15a-16-1-TAT] | increase |  |  |  |  |  |  |  |  |  |  |  |  |  | 
MSLCLSPSLT [miPEP//125a-1, fragment of 10 amino acids corresponding to the N-terminal part of the miPEP 125a-1] |  | significantly higher | significantly more bone formation | significantly higher | greater | increased | without consequence | increases | increases | increases | increases | increases | increases | promote osteoblast differentiation | 
MVGLNPPLWQ [miPEP//145-2, fragment of 10 amino acids corresponding to the N-terminal part of the miPEP 145-2] |  |  |  |  |  |  |  | increases | increases |  |  |  | increases | promote osteoblast differentiation | increases
